# Measured values published in patent publication US20240301409A1, “Chemically Modified Small Activating RNA” (RACTIGEN THERAPEUTICS, priority 2021, published 2024).
# Tested on: Rag1-40 target sequence in the 3′ UTR of firefly luciferase, COS-1 cells
substance,measurement,value
"RAG1-40-31: saRNA duplex: sense fCfCAACUCAUUCUCCAAG*U*C (SEQ ID NO 16); antisense U*A*fCfUfUGGAGAAfUGAGfUfUGG*fC*A (SEQ ID NO 12) (sense CCAACUCAUUCUCCAAGUC; antisense UACUUGGAGAAUGAGUUGGCA; 2'-F and phosphorothioate modifications; modified_base (1)..(2) (1,2)=2′-fluoro; modified_base (17)..(19) (17,18,19)=phosphorothioate (PS) backbone modification; modified_base (2)..(21) (2,3,19,20,21)=phosphorothioate (PS) backbone modification; modified_base (3)..(20) (3,4,5,12,16,17,20)=2′-fluoro)","off-target effect compared to unmodified Rag1-40, in words",mitigated or similar off-target effects
